# Laboratory results from the NIST ThermoML archive (doi:10.1016/j.tca.2018.05.015).
# Numbers after ± are expanded uncertainties.
# Conditions: for mass density: 101.33 kPa, X-ray diffraction; for Triple point temperature: DSC
compound,measurement,setting,value
"CC(C)(C#N)N=NC(C)(C)C#N [2,2'-dimethyl-2,2'-azodipropionitrile]",mass density,"346.15 K, Crystal 2",1100 ± 22 kg/m3
same,mass density,"356.15 K, Crystal 1",1096 ± 22 kg/m3
same,Triple point temperature,Crystal 1,373.15 ± 5 K
same,Triple point temperature,Crystal 2,351.15 ± 5 K
